Assay results from PubChem BioAssay AID2060617 (Molecular Pharmacology Branch, DTP, NCI, 2025).
pIC50: −log10 of the molar value.

Test system: 485368-065-R4-J2-PDC spheroids with HUVEC/MSC, viability
Assay: Anticancer human tumor 485368-065-R4-J2-PDC patient-derived pancreatic carcinoma cell line growth inhibition [CLK]
Conditions: for pIC50: curve of first compound; for viability, T/C: stronger effect = lower value
Method in brief: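 Patient-derived tumor cells grown as complex spheroids with HUVEC endothelial cells and mesenchymal stem cells, treated with drug combinations. Concentrations descend in half-log steps from near clinical Cmax, or from 10 microM if Cmax unknown.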
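Note: spheroids exposed to compounds for seven days.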
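Throughout, for viability, T/C: 100% = DMSO vehicle control wells.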

Q: How did the pIC50 (second compound 0.0316 µM) turn out when `CC(C)CC(NC(=O)C(Cc1ccccc1)NC(=O)c1cnccn1)B(O)O` (configuration not stated) + CN1CCN(c2cc(C(=O)Nc3cc4cc(-c5cnn(C)c5)ccc4cn3)ccn2)CC1 was run?
A: 8.16

Q: And the pIC50 (second compound 0.1 µM)?
A: 8.21

Q: What about the pIC50 (second compound 0.316 µM) of the same compound?
A: 8.63

Q: What about the pIC50 (second compound 1 µM) of the same compound?
A: > 9.02

Q: What about the pIC50 (second compound 3.16 µM) of the same compound?
A: > 9.02

Q: What about the pIC50 (second compound 10 µM) of the same compound?
A: > 9.02

Q: And the viability, T/C (second compound 0.0316 µM, first compound 0.000949 µM)?
A: 93.5%

Q: And the viability, T/C (second compound 0.0316 µM, first compound 0.003 µM)?
A: 118%

Q: And the viability, T/C (second compound 0.0316 µM, first compound 0.00949 µM)?
A: 29.8%

Q: And the viability, T/C (second compound 0.0316 µM, first compound 0.03 µM)?
A: 14.3%

Q: And the viability, T/C (second compound 0.0316 µM, first compound 0.0949 µM)?
A: 8.25%

Q: What about the viability, T/C (second compound 0.0316 µM, first compound 0.3 µM) of the same compound?
A: 4.1%

Q: What about the viability, T/C (second compound 0.1 µM, first compound 0.000949 µM) of the same compound?
A: 102%

Q: And the viability, T/C (second compound 0.1 µM, first compound 0.003 µM)?
A: 92.2%

Q: And the viability, T/C (second compound 0.1 µM, first compound 0.00949 µM)?
A: 24.4%

Q: What about the viability, T/C (second compound 0.1 µM, first compound 0.03 µM) of the same compound?
A: 14.3%

Q: What about the viability, T/C (second compound 0.1 µM, first compound 0.0949 µM) of the same compound?
A: 7.86%

Q: And the viability, T/C (second compound 0.1 µM, first compound 0.3 µM)?
A: 3.66%

Q: And the viability, T/C (second compound 0.316 µM, first compound 0.000949 µM)?
A: 89.5%

Q: What about the viability, T/C (second compound 0.316 µM, first compound 0.003 µM) of the same compound?
A: 39.8%

Q: And the viability, T/C (second compound 0.316 µM, first compound 0.00949 µM)?
A: 14.8%

Q: And the viability, T/C (second compound 0.316 µM, first compound 0.03 µM)?
A: 8.49%

Q: What about the viability, T/C (second compound 0.316 µM, first compound 0.0949 µM) of the same compound?
A: 4.29%

Q: What about the viability, T/C (second compound 0.316 µM, first compound 0.3 µM) of the same compound?
A: 2.89%

Q: What about the viability, T/C (second compound 1 µM, first compound 0.000949 µM) of the same compound?
A: 1%

Q: What about the viability, T/C (second compound 1 µM, first compound 0.003 µM) of the same compound?
A: 3.72%

Q: What about the viability, T/C (second compound 1 µM, first compound 0.00949 µM) of the same compound?
A: 2.87%

Q: And the viability, T/C (second compound 1 µM, first compound 0.03 µM)?
A: 1.87%

Q: What about the viability, T/C (second compound 1 µM, first compound 0.0949 µM) of the same compound?
A: 3.57%

Q: What about the viability, T/C (second compound 1 µM, first compound 0.3 µM) of the same compound?
A: 3.73%

Q: What about the viability, T/C (second compound 3.16 µM, first compound 0.000949 µM) of the same compound?
A: 1.35%

Q: And the viability, T/C (second compound 3.16 µM, first compound 0.003 µM)?
A: 4.02%

Q: What about the viability, T/C (second compound 3.16 µM, first compound 0.00949 µM) of the same compound?
A: 3%

Q: And the viability, T/C (second compound 3.16 µM, first compound 0.03 µM)?
A: 3.03%

Q: What about the viability, T/C (second compound 3.16 µM, first compound 0.0949 µM) of the same compound?
A: 3.95%

Q: What about the viability, T/C (second compound 3.16 µM, first compound 0.3 µM) of the same compound?
A: 4.37%

Q: And the viability, T/C (second compound 10 µM, first compound 0.000949 µM)?
A: 1.26%

Q: What about the viability, T/C (second compound 10 µM, first compound 0.003 µM) of the same compound?
A: 3.6%

Q: And the viability, T/C (second compound 10 µM, first compound 0.00949 µM)?
A: 2.94%

Q: What about the viability, T/C (second compound 10 µM, first compound 0.03 µM) of the same compound?
A: 1.87%

Q: What about the viability, T/C (second compound 10 µM, first compound 0.0949 µM) of the same compound?
A: 2.33%

Q: And the viability, T/C (second compound 10 µM, first compound 0.3 µM)?
A: 1.8%
